Results as given in patent publication US20250064789A1, “KETOAMIDE DERIVATIVES AND PHARMACEUTICAL USES THEREOF” (priority 2022, published 2025).
Where two headings read alike, the source gives them in different places.

Experiments:
[1] = molecular target: recombinant SARS-CoV-2 M^pro (Severe acute respiratory syndrome coronavirus 2 (2019-nCoV) (SARS-CoV-2), UniProt P0DTD1); test: Inhibition of SARS-CoV-2 M^pro enzyme activity (fluorescent substrate assay); format: biochemical; conditions: inhibition of SARS-CoV-2 M^pro enzyme activity, read-out: IC50
in vivo = conditions: male, Sprague-Dawley, rat, po, 10 mg/kg

Row | Compound | IC50 ([1]; values in nM) [nM] | further results
1 | O=C(CNC(=O)C1CC12CCC(F)(F)CC2)N[C@H](Cc1ccccc1)C(=O)C(=O)NCc1ccccn1 (stereo partly drawn) [Compound 333] | 13.4 ± 0.2 | AUC(0-inf) (in vivo): 22400 ± 10800 ng·h/mL; AUC(0-t) (in vivo): 18700 ± 9060 ng·h/mL; Cmax (in vivo): 1590 ± 573 ng/mL; MRT inf (in vivo): 7.47 ± 0.38 h; Tmax (in vivo): 0.92 ± 0.95 h; half-life (in vivo): 9.74 ± 0.38 h
2 | O=C(NCc1nccs1)C(=O)[C@@H](Cc1ccccc1)NC(=O)c1ccc(F)cc1 [Compound 473] |  | IC50 ([1]; values given in μM): 1310 ± 100 nM
3 | O=C(CNC(=O)c1ccc(Cl)cc1)N[C@H](Cc1ccccc1)C(=O)C(=O)NCc1ccccn1 [Compound 439] | 46.2 ± 0.3 | 
4 | C[C@H](C(=O)N[C@H](Cc1ccccc1)C(=O)C(=O)NCc1ccccn1)N(C)C(=O)c1ccc(F)cc1 [Compound 149] | 36.4 ± 7.4 | 
5 | CC(C)(NC(=O)c1ccc(F)c(OC(F)(F)F)c1)C(=O)N[C@H](Cc1ccccc1)C(=O)C(=O)NCc1ccccn1 [Compound 184] | 13.3 ± 0.2 | 
6 | CC(C)(OCc1ccc(Cl)cc1)C(=O)N[C@H](Cc1ccccc1)C(=O)C(=O)NCc1nccs1 [Compound 485] | 33.3 ± 1.7 | 
7 | CC(C)(NC(=O)C1CCC(F)(F)CC1)C(=O)N[C@H](Cc1ccccc1)C(=O)C(=O)NCc1nccs1 [Compound 537] | 89.5 ± 1.5 | 
8 | CC(C)(OCc1cc(F)cc(Cl)c1)C(=O)N[C@H](Cc1ccccc1)C(=O)C(=O)NCc1ccccn1 [Compound 19] | 45.2 ± 1.2 | 
9 | CC(C)(C(=O)N[C@H](Cc1ccccc1)C(=O)C(=O)NCc1ccccn1)n1cc(Br)cn1 [Compound 327] | 245 ± 2.7 | 
10 | CC[C@@H](C)[C@@H](NC(=O)C1CCC(F)(F)CC1)C(=O)N[C@H](Cc1ccccc1)C(=O)C(=O)NCc1ccccn1 [Compound 221] | 15.6 ± 1.2 | 
11 | O=C(NCc1ncon1)C(=O)[C@@H](Cc1ccccc1)NC(=O)c1ccccc1 [Compound 460] |  | IC50 ([1]; values given in μM): 53000 ± 3340 nM
12 | O=C(NCc1nccs1)C(=O)[C@@H](Cc1cccc(F)c1)NC(=O)c1ccccc1 [Compound 465] |  | IC50 ([1]; values given in μM): 2550 ± 20 nM
13 | C[C@@H](NC(=O)C1C2CCCC2CN1C(=O)OC(C)(C)C)C(=O)N[C@H](Cc1ccccc1)C(=O)C(=O)NCc1ccccn1 (stereo partly drawn) [Compound 118] | 40.2 ± 3.4 | 
14 | O=C(NCc1ccccn1)C(=O)[C@@H](Cc1ccccc1)NC(=O)[C@H](NC(=O)C1CCC(F)(F)CC1)C1CCCCC1 [Compound 223] | 11.1 ± 0.3 | 
15 | C[C@@H](NC(=O)C1CCC(F)(F)CC1)C(=O)N[C@H](Cc1ccccc1F)C(=O)C(=O)NCc1ccccn1 [Compound 361] | 27.2 ± 2.8 | 
16 | C[C@@H](NC(=O)C1CCC(F)(F)CC1)C(=O)N[C@H](Cc1ccccc1)C(=O)C(=O)NCc1ccon1 [Compound 353] | 845.8 ± 2.1 | 
17 | O=C(NCc1nccs1)C(=O)[C@@H](Cc1ccccc1)NC(=O)[C@H]1COCCN1C(=O)C1CCC(F)(F)C1 (stereo partly drawn) [Compound 409] | 36.6 ± 0.4 | 
18 | CC[C@@H](C(=O)N[C@H](C)C(=O)N[C@H](Cc1ccccc1)C(=O)C(=O)NCc1ccccn1)N1CCCC1=O [Compound 123] | 163 ± 2 | 
19 | CC(C)(NC(=O)N1CCC(F)(F)CC1)C(=O)N[C@H](Cc1ccccc1)C(=O)C(=O)NCc1ccccn1 [Compound 302] | 41.5 ± 0.9 | 
20 | COc1cccnc1CNC(=O)C(=O)[C@@H](Cc1ccccc1)NC(=O)[C@@H](C)NC(=O)C1CCC(F)(F)CC1 [Compound 339] |  | IC50 ([1]; values given in μM): 6130 ± 220 nM
21 | O=C(CNC(=O)C1CCC(F)(F)CC1)N[C@H](Cc1ccc(Cl)cc1)C(=O)C(=O)NCc1ccccn1 [Compound 447] | 187.3 ± 1.1 | 

Row | Compound | IC50 ([1]; values in nM) [nM] | further results
22 | C[C@H](C(=O)N[C@H](Cc1ccccc1)C(=O)C(=O)NCc1ccccn1)N(C)C(=O)C1CCC(F)(F)CC1 [Compound 119] | 16.5 ± 1.5 | 
23 | O=C(NCc1ccccn1)C(=O)[C@@H](Cc1ccccc1)NC(=O)[C@H]1Cc2ccccc2CN1C(=O)NCC1CC(F)(F)C1 [Compound 310] | 12.4 | 
24 | CC(C)(NC(=O)CCC1CCC(F)(F)CC1)C(=O)N[C@H](Cc1ccccc1)C(=O)C(=O)NCc1ccccn1 [Compound 171] | 8.9 ± 0.4 | 
25 | COc1ccc(OC(F)(F)F)cc1C(=O)N[C@H](C)C(=O)N[C@H](Cc1ccccc1)C(=O)C(=O)NCc1nccs1 [Compound 384] | 15.5 ± 0.3 | 
26 | CC(C)(OCc1ccc(F)cc1)C(=O)N[C@H](Cc1ccccc1)C(=O)C(=O)NCc1nccs1 [Compound 484] | 95.7 ± 1.5 | 
27 | C[C@@H](NC(=O)C1CC2CCC1C2)C(=O)N[C@H](Cc1ccccc1)C(=O)C(=O)NCc1nccs1 (stereo partly drawn) [Compound 371] | 31.7 ± 2.6 | 
28 | CS(=O)(=O)CC[C@@H](NC(=O)CC1CC(F)(F)C1)C(=O)N[C@H](Cc1ccccc1)C(=O)C(=O)NCc1nccs1 [Compound 569] | 18.8 ± 0.9 | 
29 | O=C(NCc1ccccn1)C(=O)[C@@H](Cc1ccccc1)NC(=O)[C@@H]1CC2(CC2)CN1C(=O)C1CCC(F)(F)CC1 [Compound 272] |  | IC50 ([1]; values given in μM): > 2500 nM
30 | C[C@@H](NC(=O)C(C)(C)Oc1ccc(Cl)cc1F)C(=O)N[C@H](Cc1ccccc1)C(=O)C(=O)NCc1ccccn1 [Compound 82] | 5.8 ± 0.1 | 
31 | COC[C@@H](NC(=O)C1CCCC(F)(F)C1)C(=O)N[C@H](Cc1ccccc1)C(=O)C(=O)NCc1ncon1 (stereo partly drawn) [Compound 562] |  | IC50 ([1]; values given in μM): > 2500 nM
32 | O=C(NCc1ccccn1)C(=O)[C@@H](Cc1ccccc1)NC(=O)C1(NC(=O)C2(F)CCCCC2)CC1 [Compound 168] | 10.7 ± 0.4 | 
33 | CC1=NN=C(C)C1C(=O)NC1(C(=O)N[C@H](Cc2ccccc2)C(=O)C(=O)NCc2ccccn2)CCC1 [Compound 212] | 346 ± 9.9 | 
34 | COC[C@@H](NC(=O)OC1CC(F)(F)C1)C(=O)N[C@H](Cc1ccccc1)C(=O)C(=O)NCc1nccs1 [Compound 553] | 18.8 ± 4.6 | 
35 | O=C(Cn1cc(-c2ccc(F)nc2)cn1)N[C@H](Cc1ccccc1)C(=O)C(=O)NCc1nccs1 [Compound 493] | 451.5 ± 2.3 | 
36 | C[C@@H](NC(=O)c1cc(F)cc(Cl)c1)C(=O)N[C@H](Cc1ccccc1)C(=O)C(=O)NCc1ccc(Cl)cn1 [Compound 60] | 24.9 ± 0.1 | 
37 | C[C@@H](NC(=O)c1cnccn1)C(=O)N[C@H](Cc1ccccc1)C(=O)C(=O)NCc1ccccn1 [Compound 106] | 161 ± 4.1 | 
38 | C[C@@H](NC(=O)NC1CCC(F)(F)CC1)C(=O)N[C@H](Cc1ccccc1)C(=O)C(=O)NCc1ccccn1 [Compound 295] | 12.2 | 
39 | O=C(NCc1ccccn1)C(=O)[C@@H](Cc1ccccc1)NC(=O)C1(C(=O)NC2CCC(F)(F)CC2)CC1 [Compound 319] | 37.1 ± 2.9 | 
40 | O=C(COc1ccc(F)cc1)N[C@H](Cc1ccccc1)C(=O)C(=O)NCc1ccccn1 [Compound 54] | 298.4 ± 2.9 | 
41 | O=C(CC1CC(F)(F)C1)NC1(C(=O)N[C@H](Cc2ccccc2)C(=O)C(=O)NCc2ccccn2)CCC1 [Compound 209] | 12.2 ± 0.2 | 
42 | Cc1nn(CC(=O)N[C@H](Cc2ccccc2)C(=O)C(=O)NCc2nccs2)c(C)c1-c1ccc(F)c(Cl)c1 [Compound 499] | 32.9 ± 1.5 | 

Row | Compound | IC50 ([1]; values in nM) [nM] | further results
43 | COC[C@@H](NC(=O)N1CC(F)(F)C(F)(F)C1)C(=O)N[C@H](Cc1ccccc1)C(=O)C(=O)NCc1nccs1 [Compound 552] | 200.9 ± 1.6 | 
44 | CC1(C)C(C(=O)NC2(C(=O)N[C@H](Cc3ccccc3)C(=O)C(=O)NCc3ccccn3)CCC2)C1(C)C [Compound 192] | 25.4 ± 0.9 | 
45 | C[C@@H](NC(=O)CC1CC1(F)F)C(=O)N[C@H](Cc1ccccc1)C(=O)C(=O)NCc1nccs1 (stereo partly drawn) [Compound 376] | 35.2 ± 3.6 | 
46 | COC[C@@H](NC(=O)C1CCCC(F)(F)C1)C(=O)N[C@H](Cc1ccccc1)C(=O)C(=O)NCc1ccccn1 (stereo partly drawn) [Compound 557] | 26.1 ± 0.4 | 
47 | C[C@@H](NC(=O)C1CCC(F)(F)CC1)C(=O)N[C@H](Cc1ccccc1)C(=O)C(=O)NCc1ccc(C(F)(F)F)cn1 [Compound 344] | 857.2 ± 3.1 | 
48 | O=C(Cc1noc(C2CCC(F)(F)CC2)n1)N[C@H](Cc1ccccc1)C(=O)C(=O)NCc1nccs1 [Compound 533] | 69 ± 6.9 | 
49 | O=C(NCc1ccccn1)C(=O)[C@@H](Cc1ccccc1)NC(=O)C1(OCc2ccc(Cl)cc2)CC1 [Compound 25] | 24.9 ± 0.3 | 
50 | O=C(NCc1ccccn1)C(=O)[C@@H](Cc1ccccc1)NC(=O)C1CCN(Cc2ccccc2)C1 (stereo partly drawn) [Compound 279] | 272 ± 6.2 | 
51 | CC(C)(NC(=O)[C@@H](NC(=O)c1cnccn1)C1CCCCC1)C(=O)N[C@H](Cc1ccccc1)C(=O)C(=O)NCc1ccccn1 [Compound 178] | 17.5 ± 0.5 | 
52 | Cc1cnc(CNC(=O)C(=O)[C@@H](Cc2ccccc2)NC(=O)[C@@H](C)NC(=O)C2CCC(F)(F)CC2)s1 [Compound 356] | 43.1 ± 0.1 | 
53 | O=C(NCc1ccccn1)C(=O)[C@@H](Cc1ccccc1)NC(=O)C1(C(=O)NCc2cnccn2)CC1 [Compound 321] | 166 ± 2.6 | 
54 | N#Cc1ccc(C(=O)NCC(=O)N[C@H](Cc2ccccc2)C(=O)C(=O)NCc2ccccn2)cc1F [Compound 443] | 168 ± 1.9 | 
55 | CN(C(=O)C1CCC(F)(F)CC1)C1(C(=O)N[C@H](Cc2ccccc2)C(=O)C(=O)NCc2ccccn2)CCC1 [Compound 194] | 387 ± 30 | 
56 | C[C@@H](OCc1ccc(F)cc1)C(=O)N[C@H](Cc1ccccc1)C(=O)C(=O)NCc1ccc(Cl)cn1 [Compound 42] | 17.6 ± 0.4 | 
57 | C[C@@H](OCc1ccc(Cl)cc1)C(=O)N[C@H](Cc1ccccc1)C(=O)C(=O)NCc1ccc(Cl)cn1 [Compound 45] | 14.7 ± 1 | 
58 | O=C(NCc1ccccn1)C(=O)[C@@H](Cc1ccccc1)NC(=O)[C@H]1CC(F)(F)CN1C(=O)CC1CCC(F)(F)CC1 [Compound 276] | 13 ± 0.8 | 
59 | C[C@@H](NC(=O)Cc1cc(F)cc(F)c1)C(=O)N[C@H](Cc1ccccc1)C(=O)C(=O)NCc1ccccn1 [Compound 79] | 10.9 ± 0.1 | 
60 | (R)-3-((R)-2-(benzyloxy)propionamido)-N-((5-chloropyridin-2-yl)methyl)-4-(4-fluorophenyl)-2-oxobutyramide [Compound 52] | 44.2 ± 3.4 | 
61 | CC1(C)[C@@H]2[C@@H](C(=O)N[C@H](Cc3ccccc3)C(=O)C(=O)NCc3ccccn3)N(C(=O)C3CCC(F)(F)CC3)C[C@@H]21 [Compound 262] | 933.7 ± 5 | 
62 | O=C(Cn1cc(-c2cc(F)ccc2F)cn1)N[C@H](Cc1ccccc1)C(=O)C(=O)NCc1nccs1 [Compound 507] | 12.6 ± 0.4 | 
63 | O=C(CNC(=O)c1ccccc1F)N[C@H](Cc1ccccc1)C(=O)C(=O)NCc1nccs1 [Compound 481] | 998.3 ± 0.2 | 
